Data: patent US20020169394A1, “Integrated tissue poration, fluid harvesting and analysis device, and method therefor” (priority 1993, published 2002)

Experiments:
subjects left forearm = test: Lidocaine delivery through porated stratum corneum with ultrasound; numbness assessed by rubbing a 30 gauge wire across the test site; format: in vivo, human
From the text: A drawing of an illustrative delivery apparatus 300 is shown in FIG. 50, wherein the apparatus comprises a housing 304 enclosing a reservoir 308 for holding a drug-containing solution 312. The top portion of the housing comprises an ultrasonic transducer 316 for providing sonic energy to aid in transporting the drug-containing solution through micropores; 320 in the stratum corneum 324. A port 328 in the ultrasonic transducer permits application of pressure thereto for further aiding in transporting the drug-containing solution through the micropores in the stratum corneum. The delivery apparatus is applied to a selected area of an individual's skin such that it is positioned over at least one, and preferably a plurality, of micropores. An adhesive layer 332 attached to a lower portion of the housing permits the apparatus to adhere to the skin such that the drugcontaining solution in the reservoir is in liquid communication with the micropores.
Five subjects were tested for the effectiveness of drug delivery using poration together with ultrasound. The experiment used two sites on the subjects left forearm about three inches apart, equally spaced between the thumb and upper arm. The site near the thumb will be referred to as site 1 the site furthest from the thumb will be referred to as site 2. […] Site 2 was porated with 24 holes spaced 0.8 millimeters apart in a grid contained within a 1 cm diameter circle. The micropores in Site 2 were generated according to the procedure of Example 6. […] Ultrasound applications were made with a custom manufactured Zevex ultrasonic transducer assembly set in burst mode with 0.4 Volts peak to peak input with 1000 count bursts occurring at 10 Hz with a 65.4 kHz fundamental frequency, i.e., a pulse modulated signal with the transducer energized for 15 millisecond bursts, and then turned off for the next 85 milliseconds. The measured output of the amplifier to the transducer was 0.090 watts RMS.
Experiments were executed on both sites, Site 1 for 10 to 12 minute duration and Site 2 for two 5 minute duration intervals applied serially to the same site. Both sites were assessed for numbness using a scale of 10 to 0, where 10 indicated no numbness and 0 indicated complete numbness as reported by the test subjects.

[1] = system: human cadaver skin samples (stratum corneum); format: in vitro ADME
Experimental: Modulated sonic energy and chemical enhancers were tested for their ability to control transdermal flux on human cadaver skin samples. In these tests, the epidermal membrane had been separated from the human cadaver whole skin by the heat-separation method of Example 1. The epidermal membrane was cut and placed between two halves of the permeation cell with the stratum corneum facing either the upper (donor) compartment or lower (receiver) compartment. Modified Franz cells were used to hold the epidermis, as shown in FIG. 2 of U.S. Pat. No. 5,445,611. Each Franz cell consists of an upper chamber and a lower chamber held together with one or more clamps. The lower chamber has a sampling port through which materials can be added or removed. A sample of stratum corneum is held between the upper and lower chambers when they are clamped together. The upper chamber of each Franz cell is modified to allow an ultrasound transducer to be positioned within 1 cm of the stratum corneum membrane. Methylene blue solution was used as an indicator molecule to assess the permeation of the stratum corneum. A visual record of the process and results of each experiment was obtained in a time stamped magnetic tape format with a video camera and video cassette recorder (not shown). Additionally, samples were withdrawn for measurement with an absorption spectrometer to quantitate the amount of dye which had traversed the stratum corneum membrane during an experiment. Chemical enhancers suitable for use could vary over a wide range of solvents and/or cell envelope disordering compounds as noted above. The specific enhancer utilized was: ethanol/glycerol/water/glycerolmonooleate/methyl laurate in 50/30/15/2.5/2.5 volume ratios. The system for producing and controlling the sonic energy included a programmable 0-30 MHz arbitrary waveform generator (Stanford Reserach Systems Model DS345), a 20 watt 0-30 MHz amplifier, and two unfocused ultrasound immersion transducers having peak resonances at 15 and 25 MHz, respectively. […]

[2] = Site 2 porated plus ultrasound, after the second application

Row | visual evidence of dye flux through the stratum corneum [1] | visually detectable permeation of the stratum corneum [1] | level of dye solution in 2 ml of receiver medium (no visual indication of dye flux) ([1]; human, 5 min) | Compound | numbness, scale of 10 to 0 (10 no numbness, 0 complete numbness) (subjects left forearm; Site 1 control, no micro-poration or sonic energy, at approximately 20 minutes) | numbness, scale of 10 to 0 (10 no numbness, 0 complete numbness) (subjects left forearm; Site 1 control: lidocaine and enhancer solution, no micro-poration or sonic energy, at 10 to 12 minutes, 5 subjects) | diameter of totally numb circle (subjects left forearm; Site 2 porated plus ultrasound, after the second 5 minute application) | diameter of numb oval pattern parallel to the forearm (subjects left forearm; [2]) [cm] | diameter of numb oval pattern perpendicular to the forearm (subjects left forearm; [2]) [cm] | numbness, scale of 10 to 0 (10 no numbness, 0 complete numbness) (subjects left forearm; Site 2 porated with 24 holes plus low level ultrasound, in the 1 cm circle containing the porations, first 5 minute application)
1 |  |  |  | CCN(CC)CC(=O)Nc1c(C)cccc1C [lidocaine] | 3 | 7 to 10 | about 12 cm | 2 to 6 | 2 to 2.5 | 0 to 1
2 | No visual evidence of dye flux | no visually detectable permeation | < 0.0015 % (v/v) | CN(C)c1ccc2nc3ccc(=[N+](C)C)cc-3sc2c1 [methylene blue] |  |  |  |  |  | 
